# What was measured:
# CYP2C8 [1] = target: T1, CYP2C8 (Homo sapiens, UniProt P10632); experiment: CYP450 inhibition assay, human liver microsomes; type: biochemical; design: from tissue; host or cells: human liver microsomes (per the earlier reading and the cited method); conditions: substrate paclitaxel
# T1 sequence (P10632 1-490): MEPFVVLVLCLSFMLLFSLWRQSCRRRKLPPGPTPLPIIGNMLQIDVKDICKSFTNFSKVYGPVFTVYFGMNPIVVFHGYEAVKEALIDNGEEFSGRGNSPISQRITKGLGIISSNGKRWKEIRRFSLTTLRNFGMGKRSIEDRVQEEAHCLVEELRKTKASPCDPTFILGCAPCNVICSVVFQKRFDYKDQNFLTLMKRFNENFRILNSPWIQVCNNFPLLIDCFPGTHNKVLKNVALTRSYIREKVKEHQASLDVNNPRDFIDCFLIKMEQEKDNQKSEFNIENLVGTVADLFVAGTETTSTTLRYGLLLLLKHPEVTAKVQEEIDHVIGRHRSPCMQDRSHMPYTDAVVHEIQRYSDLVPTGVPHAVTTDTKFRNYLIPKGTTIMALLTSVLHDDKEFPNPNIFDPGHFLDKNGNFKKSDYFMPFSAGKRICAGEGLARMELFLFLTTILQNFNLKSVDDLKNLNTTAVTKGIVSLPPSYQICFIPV
# CYP2C8 [2] = target: T1, CYP2C8; experiment: Qualitative CYP2C8 screening, Vivid CYP2C8 Green kit, fluorimetry; type: biochemical; design: purchased Life Technologies; host or cells: Baculosomes; conditions: recombinant CYP2C8 Baculosomes, probe Vivid DBOMF, 1 µM (1000 nM) compound, substrate DBOMF
# Method: CYP450 inhibition assays (excluding CYP19 and 1 µM CYP2C8) were performed as previously described.[31] Substrate metabolite formation was measured by HPLC‐MS/MS. Percent of control activity was determined by comparing metabolite peak areas with and without test compound. Qualitative screening of CYP2C8 (1 µM) and CYP19 is described in detail in Supporting Information. Reference compound IC50 values were determined by non‐linear regression analysis using Hill equation curve fitting.
# A kinetic reaction was carried out for CYP2C8 screening in triplicate according to the Vivid? CYP450 Screening Kit manual protocol (MAN0003095). Briefly, a master pre-mix composed of CYP2C8 Baculosomes®, regeneration system of human P450 reductase/human cytochrome b5, and reaction buffer was prepared before adding 50 µL to each well in a black 96-well plate. Test compounds, positive inhibition control, and solvent controls were prepared as a 2.5X concentration with DMSO in reaction buffer of which 40 µL was dispensed into the 96-well plate. […] The test samples were pre-incubated at 37 °C for 15 min in the fluorescent microplate reader before adding a 10 µL mixture of substrate and NADP^+. Immediately, the plate was read at 2 min intervals over a 30 min time period at 37 °C. The raw data in relative fluorescent units (RFU) was analyzed according to the kinetic assay mode as outlined in the published protocol.
smiles,measurement,setting,value
CC(C)(O)c1ccccc1CC[C@@H](SCC1(CC(=O)O)CC1)c1cccc(/C=C/c2ccc3ccc(Cl)cc3n2)c1 [montelukast],nH (hill coefficient),CYP2C8 [1],0.6
same,"inhibition at 30 min, 1 µM",CYP2C8 [2],100%
